Source: US10010547B2 (CASCADIAN THERAPEUTICS, INC., priority 2014, dated 2018)
Where a name gives a salt, the structure may show the parent alone. Read-outs that look alike come from different tables or passages of the source.

Legend:
MIA PaCa-2 cells = experiment: Gemcitabine Combination Cell Assay (Cell Titer Glo); type: cell-based; settings: for IC50: Homo sapiens; for 10xLS: approximate concentration of Chk1 inhibitor that results in a 10-fold reduction in the IC50 of gemcitabine alone; for 2xLS: approximate concentration of Chk1 inhibitor that results in a two-fold reduction in the IC50 of gemcitabine alone
Procedure: Gemcitabine Combination Cell Assay
Exponentially growing MIA PaCa-2 (ATCC CRL-1420) cells are treated with trypsin to remove cells from the plate surface. Approximately 10,000 cells/well are plated in 96 well plates in RPMI containing 10% fetal bovine serum, 1% sodium pyruvate and 1% L-GlutaMax. Cells are allowed to adhere to the plate surface overnight. Serial half-log dilutions of Chk1 inhibitor test compounds and gemcitabine are made with a final highest concentration of 3000 nM and 100 nM, respectively. Chk1 inhibitors and gemcitabine are combined so that each concentration of Chk1 inhibitor is added to each concentration of gemcitabine. Each drug is also tested as a single agent. Drugs are added to adherent cells (in duplicate) and incubated for 72 h. At 72 h the cells are treated with Promega Cell Titer Glo reagent for approximately 15 minutes. Luminescence (relative light units, RLU) is recorded using a BMG Polarstar Omega plate reader. The single agent concentration that results in a 50% reduction in total signal (IC50) is calculated using PRISM software and a four-parameter non-linear regression curve fit. For combination studies the RLUs are plotted using PRISM on an XY plot with the gemcitabine concentration on the X axis and RLU on the Y axis. The RLU for each concentration of Chk1 inhibitor is plotted as a function of gemcitabine concentration. The IC50 for gemcitabine alone and at each concentration of Chk1 is determined using a four-parameter non-linear regression curve fit. The approximate concentration of Chk1 inhibitor that results in a two and ten-fold reduction in the IC50 of gemcitabine alone is calculated as an indication of synergistic potency.
From the results obtained by following the above protocol, the IC50 values against MIAPaca-2 cells of the Chk1 inhibitor alone (Chk1 IC50), the approximate concentration of Chk1 inhibitor that results in a two-fold (2×LS) and a 10-fold (10×LS) reduction in the IC50 of gemcitabine alone of each of the compounds of Examples 1-154 are shown in Table 4.

Chk-1 kinase = Chk-1 kinase (Homo sapiens (Human), UniProt O14757); experiment: Chk-1 Kinase Inhibiting Activity (33P-ATP filter assay, CHKtide substrate); type: biochemical; settings: against Chk-1 kinase; read-out: IC50
Chain of Chk-1 kinase (O14757 whole entry): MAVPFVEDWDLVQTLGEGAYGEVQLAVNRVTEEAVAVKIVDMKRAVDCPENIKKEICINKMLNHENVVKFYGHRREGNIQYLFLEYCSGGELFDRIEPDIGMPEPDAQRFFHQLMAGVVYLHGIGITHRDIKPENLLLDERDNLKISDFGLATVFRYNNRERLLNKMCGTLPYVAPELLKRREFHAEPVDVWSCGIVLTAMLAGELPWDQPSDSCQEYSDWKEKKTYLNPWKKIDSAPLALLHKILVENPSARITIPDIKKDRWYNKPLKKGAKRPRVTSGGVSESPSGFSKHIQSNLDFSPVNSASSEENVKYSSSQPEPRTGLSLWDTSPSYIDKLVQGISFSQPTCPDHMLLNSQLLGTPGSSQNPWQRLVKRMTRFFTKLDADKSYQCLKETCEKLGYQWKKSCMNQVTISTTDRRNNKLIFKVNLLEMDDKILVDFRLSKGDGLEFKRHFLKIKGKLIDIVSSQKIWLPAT
Procedure: Chk-1 Kinase Inhibiting Activity
The compounds of the invention were tested for activity against Chk-1 kinase using the materials and protocols set out below.
Base Reaction buffer: 20 mM Hepes (pH 7.5), 10 mM MgCl2, 1 mM EGTA, 0.02% Brij35, 0.02 mg/ml BSA, 0.1 mM Na3VO4, 2 mM DTT, 1% DMSO
*Required cofactors are added individually to each kinase reaction
(i) Prepare indicated substrate in freshly prepared Base Reaction Buffer
(ii) Deliver any required cofactors to the substrate solution above
(iii) Deliver indicated kinase into the substrate solution and gently mix
(iv) Deliver compounds in DMSO into the kinase reaction mixture
(v) Deliver ^33P-ATP (specific activity 0.01 μCi/μl final) into the reaction mixture to initiate the reaction.
(vi) Incubate kinase reaction for 120 minutes at room temperature
(vii) Reactions are spotted onto P81 ion exchange paper (Whatman #3698-915)
(viii) Wash filters extensively in 0.1% phosphoric acid.
(ix) Dry filters and measure counts in scintillation counter
Recombinant full length construct, N-terminal GST tagged, purified from insect cells.
No special measures were taken to activate this kinase.
Final concentration in assay=0.5 nM
Peptide sequence: [[…]]
Final concentration in assay=20 μM
No additional cofactors are added to the reaction mixture
From the results obtained by following the above protocol, the IC50 values against Chk-1 kinase of each of the compounds of Examples 1-153 were determined and these are shown in Table 3.

[1] = Chk1 inhibitor alone, MIA PaCa-2 cells, 72 h, read-out: Chk1 IC50
[2] = MIA PaCa-2, 72 h, read-out: Chk1 IC50 (nM)

IC50 (MIA PaCa-2 cells; [1]) [nM] | IC50 (Chk-1 kinase) [nM] | Compound | 10xLS (MIA PaCa-2 cells; MIA PaCa-2 cells, 72 h) [nM] | 2xLS (MIA PaCa-2 cells; MIA PaCa-2 cells, 72 h) [nM] | IC50 (MIA PaCa-2 cells; [2]) [nM]
2020 | 1.5 | COc1cc(C2CCOCC2)ccc1-c1cc(Nc2cnc(C#N)cn2)n[nH]1 [Example 48, 5-[[5-(2-methoxy-4-tetrahydropyran-4-yl-phenyl)-1H-pyrazol-3-yl]amino]pyrazine-2-carbonitrile] | 1000 | 100 | –
> 3000 | 183 | N#Cc1cnc(Nc2cc(-c3ccc(C4CCNCC4)cc3)[nH]n2)cn1 [Example 56, 5-[[5-[4-(4-piperidyl)phenyl]-1H-pyrazol-3-yl]amino]pyrazine-2-carbonitrile] | >3000 | 1000 | –
137 | 0.12 | COc1cc(N2CCCNCC2)ccc1-c1cc(Nc2cnc(C#N)cn2)n[nH]1 [Example 54, 5-[[5-[4-(1,4-diazepan-1-yl)-2-methoxy-phenyl]-1H-pyrazol-3-yl]amino]pyrazine-2-carbonitrile] | 30 | <3 | –
> 3000 | – | COc1cc(CNC(=O)C2CC2)ccc1-c1cc(Nc2cnc(C#N)cn2)n[nH]1 [Example 13, N-[[4-[3-[(5-cyanopyrazin-2-yl)amino]-1H-pyrazol-5-yl]-3-methoxy-phenyl]methyl]cyclopropanecarboxamide] | 300 | ~20 | –
687 | – | COc1cc([C@H]2CN(C)CCO2)ccc1-c1cc(Nc2cnc(C#N)cn2)n[nH]1 [Example 119, 5-[[5-[2-methoxy-4-[(2S)-4-methylmorpholin-2-yl]phenyl]-1H-pyrazol-3-yl]amino]pyrazine-2-carbonitrile] | <300 | 10 | –
– | > 100 | COc1cc(C2CCNCC2)ccc1-c1cc(Nc2cnc(C(=O)O)cn2)n[nH]1 [Example 45, 5-[[5-[2-methoxy-4-(4-piperidyl)phenyl]-1H-pyrazol-3-yl]amino]pyrazine-2-carboxylic acid] | – | – | –
397 | – | CCN1CCO[C@@H](c2ccc(-c3cc(Nc4cnc(C#N)cn4)n[nH]3)c(OC)c2)C1 [Example 120, 5-[[5-[2-methoxy-4-[(2S)-4-ethylmorpholin-2-yl]phenyl]-1H-pyrazol-3-yl]amino]pyrazine-2-carbonitrile] | 100 | 3 | –
1110 | – | COc1cc(C2CCCCN2C)ccc1-c1cc(Nc2cnc(C#N)cn2)n[nH]1 (stereo not shown) [Example 41, 5-[[5-[2-methoxy-4-(1-methyl-2-piperidyl)phenyl]-1H-pyrazol-3-yl]amino]pyrazine-2-carbonitrile] | 300 | 30 | –

More lines, now with the values behind:

Compound | IC50 (MIA PaCa-2 cells; [1]) [nM] | IC50 (Chk-1 kinase) [nM] | 10xLS (MIA PaCa-2 cells; MIA PaCa-2 cells, 72 h) [nM] | 2xLS (MIA PaCa-2 cells; MIA PaCa-2 cells, 72 h) [nM] | IC50 (MIA PaCa-2 cells; [2]) [nM]
COc1cc(N2CCN(C)CC2)cc(OC)c1-c1cc(Nc2cnc(C#N)cn2)n[nH]1 [Example 122, 5-[[5-[2,6-dimethoxy-4-(4-methylpiperazin-1-yl)phenyl]-1H-pyrazol-3-yl]amino]pyrazine-2-carbonitrile] | 136 | 0.14 | <100 | 3 | –
COc1cc(CNCc2ccc(F)cc2)ccc1-c1cc(Nc2cnc(C#N)cn2)n[nH]1 [Example 8, 5-(5-{4-[(4-fluoro-benzylamino)-methyl]-2-methoxy-phenyl}-1H-pyrazol-3-ylamino)-pyrazine-2-carbonitrile] | 259 | 0.058 | ~200 | 10 | –
CCN1CCC(c2ccc(-c3cc(Nc4cnc(C#N)cn4)n[nH]3)c(OC)c2)C(F)C1 (stereo not shown) [Example 87, 5-[[5-[4-(1-ethyl-3-fluoro-4-piperidyl)-2-methoxy-phenyl]-1H-pyrazol-3-yl]amino]pyrazine-2-carbonitrile hydrochloride] | – | 0.059 | 300 | 10 | 540
CCN1CCC(CN(C)c2ccc(-c3cc(Nc4cnc(C#N)cn4)n[nH]3)c(OC)c2)CC1 [Example 145, 5-[[5-[4-[(1-ethyl-4-piperidyl)methyl-methyl-amino]-2-methoxy-phenyl]-1H-pyrazol-3-yl]amino]pyrazine-2-carbonitrile] | 267 | 0.0084 | <100 | <3 | –
N#Cc1cnc(Nc2cc(-c3ccc(CNCc4ccccc4)cc3)[nH]n2)cn1 [Example 5, 5-{5-[4-(benzylamino-methyl)-phenyl]-1H-pyrazol-3-ylamino}-pyrazine-2-carbonitrile] | – | 2 | – | – | –
COc1cc(C[C@@H]2CCCN2C(C)C)ccc1-c1cc(Nc2cnc(C#N)cn2)n[nH]1 [Example 154, 5-[[5-[4-[[(2S)-1-isopropylpyrrolidin-2-yl]methyl]-2-methoxy-phenyl]-1H-pyrazol-3-yl]amino]pyrazine-2-carbonitrile] | 395 | – | 100 | 3 | –
COc1cc(C[C@H]2CCCN2C(C)C)ccc1-c1cc(Nc2cnc(C#N)cn2)n[nH]1 [Example 151, 5-[[5-[4-[[(2R)-1-isopropylpyrrolidin-2-yl]methyl]-2-methoxy-phenyl]-1H-pyrazol-3-yl]amino]pyrazine-2-carbonitrile] | 101 | – | <30 | <3 | –
COc1cc(CN2CC[C@H](OC)C2)ccc1-c1cc(Nc2cnc(C#N)cn2)n[nH]1 [Example 124, 5-[[5-[2-methoxy-4-[[(3S)-3-methoxypyrrolidin-1-yl]methyl]phenyl]-1H-pyrazol-3-yl]amino]pyrazine-2-carbonitrile] | 322 | – | <300 | 3 | –
COc1cc([C@H]2CN(C(C)C)CCO2)ccc1-c1cc(Nc2cnc(C#N)cn2)n[nH]1 [Example 150, 5-[[5-[4-[(2S)-4-isopropylmorpholin-2-yl]-2-methoxy-phenyl]-1H-pyrazol-3-yl]amino]pyrazine-2-carbonitrile] | 259 | – | 100 | 3 | –
COc1cc(CCNCc2ccccc2)ccc1-c1cc(Nc2cnc(C#N)cn2)n[nH]1 [Example 4, 5-{5-[4-(2-Benzylamino-ethyl)-2-methoxy-phenyl]-1H-pyrazol-3-ylamino}-pyrazine-2-carbonitrile hydrochloride] | – | 0.19 | – | – | –
COc1cc(CN2CC[C@@H](OC)C2)ccc1-c1cc(Nc2cnc(C#N)cn2)n[nH]1 [Example 125, 5-[[5-[2-methoxy-4-[[(3R)-3-methoxypyrrolidin-1-yl]methyl]phenyl]-1H-pyrazol-3-yl]amino]pyrazine-2-carbonitrile] | 550 | – | <300 | 10 | –
CCN1CCC[C@H]1Cc1ccc(-c2cc(Nc3cnc(C#N)cn3)n[nH]2)c(OC)c1 [Example 152, 5-[[5-[4-[[(2S)-1-ethylpyrrolidin-2-yl]methyl]-2-methoxy-phenyl]-1H-pyrazol-3-yl]amino]pyrazine-2-carbonitrile] | 428 | – | 100 | 3 | –
COc1cc(OCc2cocn2)ccc1-c1cc(Nc2cnc(C#N)cn2)n[nH]1 [Example 105, 5-[[5-[2-methoxy-4-(oxazol-4-ylmethoxy)phenyl]-1H-pyrazol-3-yl]amino]pyrazine-2-carbonitrile] | 2300 | – | 1000 | 30 | –
CCN1CCC[C@@H]1Cc1ccc(-c2cc(Nc3cnc(C#N)cn3)n[nH]2)c(OC)c1 [Example 149, 5-[[5-[4-[[(2R)-1-ethylpyrrolidin-2-yl]methyl]-2-methoxy-phenyl]-1H-pyrazol-3-yl]amino]pyrazine-2-carbonitrile hydrochloride] | – | – | 30 | <3 | 188
